Test results from patent US20240228506A1, “RIPK1 INHIBITORS AND METHODS OF USE” (Merck Sharp & Dohme LLC, priority 2021, published 2024).

Molecular target: T1, GST-RIPK1 (recombinant GST-RIPK1 kinase domain (residues 1-327)) (Homo sapiens, UniProt Q13546)
T1 construct: recombinant GST-RIPK1 kinase domain (residues 1-327) enzyme; made in house; host or cells: baculovirus-transfected Sf21 insect cells
T1 sequence (Q13546 1-327): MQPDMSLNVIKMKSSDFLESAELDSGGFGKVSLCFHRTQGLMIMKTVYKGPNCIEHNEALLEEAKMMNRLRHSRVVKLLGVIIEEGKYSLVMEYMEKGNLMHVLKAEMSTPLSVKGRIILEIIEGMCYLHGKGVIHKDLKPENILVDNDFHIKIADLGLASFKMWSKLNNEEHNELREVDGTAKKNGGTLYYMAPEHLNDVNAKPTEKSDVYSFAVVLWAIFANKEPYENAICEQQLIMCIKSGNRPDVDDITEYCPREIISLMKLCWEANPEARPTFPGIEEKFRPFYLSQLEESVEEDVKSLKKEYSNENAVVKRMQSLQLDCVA
Assay: RIPK1-ADP-Glo enzymatic assay
Type: biochemical
Settings: 25 nM GST-RIPK1, 300 μM ATP, 3 μM dephosphorylated-MBP; 30 minutes pre-incubation, 150 minutes reaction; ten-point titration
In short: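 Ten-point 1:3 titrations from 100000 nM, 1% DMSO, were preincubated 30 min with 25 nM GST-RIPK1 (1-327) before starting with 300 μM ATP plus 3 μM dephosphorylated MBP; 150 min reaction. ADP-Glo luminescence measured ATP-to-ADP conversion; EC50 by four-parameter sigmoidal regression.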

SMILES | IC50 [nM]
N#Cc1ccnc(N2CCC(F)(C(=O)N3C[C@@H]4C[C@H]3c3cncc(C#N)c3O4)CC2)n1 [Compound 1-83, (2S,5S)-4-(1-(4-cyanopyrimidin-2-yl)-4-fluoropiperidine-4-carbonyl)-2,3,4,5-tetrahydro-2,5-methanopyrido[3,4-f][1,4]oxazepine-9-carbonitrile] | 30
CN(C)C(C)(C)C(=O)N1C[C@@H]2C[C@H]1c1cncc(C#N)c1O2 [Compound 1-90, (2S,5S)-4-(2-(dimethylamino)-2-methylpropanoyl)-2,3,4,5-tetrahydro-2,5-methanopyrido[3,4-f][1,4]oxazepine-9-carbonitrile] | 85
CN(C)C1(C(=O)N2C[C@@H]3C[C@H]2c2cncc(C#N)c2O3)CCC1 [Compound 1-91, (2S,5S)-4-(1-(dimethylamino)cyclobutane-1-carbonyl)-2,3,4,5-tetrahydro-2,5-methanopyrido[3,4-f][1,4]oxazepine-9-carbonitrile] | 64
N#Cc1cncc2c1O[C@H]1C[C@@H]2N(C(=O)C23CC(F)(C2)C3)C1 [Compound 1-92, (2S,5S)-4-(3-fluorobicyclo[1.1.1]pentane-1-carbonyl)-2,3,4,5-tetrahydro-2,5-methanopyrido[3,4-f][1,4]oxazepine-9-carbonitrile] | 84
N#Cc1cncc2c1O[C@H]1C[C@@H]2N(C(=O)C23CC(Cl)(C2)C3)C1 [Compound 1-93, (2S,5S)-4-(3-chlorobicyclo[1.1.1]pentane-1-carbonyl)-2,3,4,5-tetrahydro-2,5-methanopyrido[3,4-f][1,4]oxazepine-9-carbonitrile] | 88
CC12CCC(C(=O)N3C[C@@H]4C[C@H]3c3cncc(C#N)c3O4)(CC1)C2 [Compound 1-94, (2S,5S)-4-(4-methylbicyclo[2.2.1]heptane-1-carbonyl)-2,3,4,5-tetrahydro-2,5-methanopyrido[3,4-f][1,4]oxazepine-9-carbonitrile] | 15
C=CC(C)(C)C(=O)N1C[C@@H]2C[C@H]1c1cncc(C#N)c1O2 [Compound 1-95, (2S,5S)-4-(2,2-dimethylbut-3-enoyl)-2,3,4,5-tetrahydro-2,5-methanopyrido[3,4-f][1,4]oxazepine-9-carbonitrile] | 30
C#CC(C)(C)C(=O)N1C[C@@H]2C[C@H]1c1cncc(C#N)c1O2 [Compound 1-96, (2S,5S)-4-(2,2-dimethylbut-3-ynoyl)-2,3,4,5-tetrahydro-2,5-methanopyrido[3,4-f][1,4]oxazepine-9-carbonitrile] | 148
COC12CCC(C(=O)N3C[C@@H]4C[C@H]3c3cncc(C#N)c3O4)(CC1)C2 [Compound 1-97, (2S,5S)-4-(4-methoxybicyclo[2.2.1]heptane-1-carbonyl)-2,3,4,5-tetrahydro-2,5-methanopyrido[3,4-f][1,4]oxazepine-9-carbonitrile] | 92
CCC12CC(C(=O)N3C[C@@H]4C[C@H]3c3cncc(C#N)c3O4)(C1)C2 [Compound 1-98, (2S,5S)-4-(3-ethylbicyclo[1.1.1]pentane-1-carbonyl)-2,3,4,5-tetrahydro-2,5-methanopyrido[3,4-f][1,4]oxazepine-9-carbonitrile] | 57
CC(C)C12CC(C(=O)N3C[C@@H]4C[C@H]3c3cncc(C#N)c3O4)(C1)C2 [Compound 1-99, (2S,5S)-4-(3-isopropylbicyclo[1.1.1]pentane-1-carbonyl)-2,3,4,5-tetrahydro-2,5-methanopyrido[3,4-f][1,4]oxazepine-9-carbonitrile] | 48
N#Cc1cncc2c1O[C@H]1C[C@@H]2N(C(=O)C23CCC(C#N)(C2)C3)C1 [Compound 1-100, (2S,5S)-4-(4-cyanobicyclo[2.1.1]hexane-1-carbonyl)-2,3,4,5-tetrahydro-2,5-methanopyrido[3,4-f][1,4]oxazepine-9-carbonitrile] | 28
N#Cc1cncc2c1O[C@H]1C[C@@H]2N(C(=O)[C@H]2C[C@@H](Oc3ccc(F)cc3F)C2)C1 [Compound 1-101] | 132
N#Cc1cncc2c1O[C@H]1C[C@@H]2N(C(=O)[C@H]2C[C@H](Oc3ccc(F)cc3F)C2)C1 [Compound 1-102] | 76
CC(C)(OC(F)(F)F)C(=O)N1C[C@@H]2C[C@H]1c1cncc(C#N)c1O2 [Compound 1-103, (2S,5S)-4-(2-methyl-2-(trifluoromethoxy)propanoyl)-2,3,4,5-tetrahydro-2,5-methanopyrido[3,4-f][1,4]oxazepine-9-carbonitrile] | 163
CC12CC(C(=O)N3C[C@@H]4C[C@H]3c3cncc(C#N)c3O4)(C1)C2 [Compound 1-104, (2S,5S)-4-(3-methylbicyclo[1.1.1]pentane-1-carbonyl)-2,3,4,5-tetrahydro-2,5-methanopyrido[3,4-f][1,4]oxazepine-9-carbonitrile] | 203

SMILES | IC50 [nM]
CCCC12CC(C(=O)N3C[C@@H]4C[C@H]3c3cncc(C#N)c3O4)(C1)C2 [Compound 1-105, (2S,5S)-4-(3-propylbicyclo[1.1.1]pentane-1-carbonyl)-2,3,4,5-tetrahydro-2,5-methanopyrido[3,4-f][1,4]oxazepine-9-carbonitrile] | 92
N#Cc1cncc2c1O[C@H]1C[C@@H]2N(C(=O)C23CCC(CO2)C3)C1 [Compound 1-108, (2S,5S)-4-(2-oxabicyclo[2.2.1]heptane-1-carbonyl)-2,3,4,5-tetrahydro-2,5-methanopyrido[3,4-f][1,4]oxazepine-9-carbonitrile] | 269
CN1CC2CC1(C(=O)N1C[C@@H]3C[C@H]1c1cncc(C#N)c1O3)C2 [Compound 1-109, (2S,5S)-4-(2-methyl-2-azabicyclo[2.1.1]hexane-1-carbonyl)-2,3,4,5-tetrahydro-2,5-methanopyrido[3,4-f][1,4]oxazepine-9-carbonitrile] | 241
N#Cc1cncc2c1O[C@H]1C[C@@H]2N(C(=O)C2(C#N)CCC2)C1 [Compound 1-110, (2S,5S)-4-(1-cyanocyclobutane-1-carbonyl)-2,3,4,5-tetrahydro-2,5-methanopyrido[3,4-f][1,4]oxazepine-9-carbonitrile] | 129
N#Cc1cncc2c1O[C@H]1C[C@@H]2N(C(=O)C2(C#N)CCCC2)C1 [Compound 1-111, (2S,5S)-4-(1-cyanocyclopentane-1-carbonyl)-2,3,4,5-tetrahydro-2,5-methanopyrido[3,4-f][1,4]oxazepine-9-carbonitrile] | 184
CC(C)(C(=O)N1C[C@@H]2C[C@H]1c1cncc(F)c1O2)C(F)F [Compound 2-1, 3,3-Difluoro-1-((2S,5S)-9-fluoro-2,3-dihydro-2,5-methanopyrido[3,4-f][1,4]oxazepin-4(5H)-yl)-2,2-dimethylpropan-1-one] | 184
CC(C)(C(=O)N1C[C@@H]2C[C@H]1c1cncc(Cl)c1O2)C(F)F [Compound 2-2, 1-((2S,5S)-9-Chloro-2,3-dihydro-2,5-methanopyrido[3,4-f][1,4]oxazepin-4(5H)-yl)-3,3-difluoro-2,2-dimethylpropan-1-one] | 139
O=C(N1C[C@@H]2C[C@H]1c1cncc(Cl)c1O2)C12CCC(F)(CC1)C2 [Compound 2-3, ((2S,5S)-9-Chloro-2,3-dihydro-2,5-methanopyrido[3,4-f][1,4]oxazepin-4(5H)-yl)(4-fluorobicyclo[2.2.1]heptan-1-yl)methanone] | 8
O=C(N1C[C@@H]2C[C@H]1c1cncc(Cl)c1O2)C12CCC(C(F)(F)F)(CC1)C2 [Compound 2-4, [(2S,5S)-9-chloro-2,3-dihydro-2,5-methanopyrido[3,4-f][1,4]oxazepin-4(5H)-yl][4-(trifluoromethyl)bicyclo [2.2.1]heptan-1-yl]methanone] | 10
CC(F)(F)C(C)(C)C(=O)N1C[C@@H]2C[C@H]1c1cncc(Cl)c1O2 [Compound 2-5, 1-[(2S,5S)-9-chloro-2,3-dihydro-2,5-methanopyrido[3,4-f][1,4]oxazepin-4(5H)-yl]-3,3-difluoro-2,2-dimethylbutan-1-one] | 18
CC(C)(C(=O)N1C[C@@H]2C[C@H]1c1cncc(Cl)c1O2)C1CC1 [Compound 2-6] | 24
O=C(N1C[C@@H]2C[C@H]1c1cncc(F)c1O2)C12CCC(F)(CC1)C2 [Compound 2-7, (4-fluorobicyclo[2.2.1]heptan-1-yl)[(2S,5S)-9-fluoro-2,3-dihydro-2,5-methanopyrido[3,4-f][1,4]oxazepin-4(5H)-yl]methanone] | 26
CC(C)(C)C(=O)N1C[C@@H]2C[C@H]1c1cncc(Br)c1O2 [Compound 2-8, 1-((2S,5S)-9-bromo-2,3-dihydro-2,5-methanopyrido[3,4-f][1,4]oxazepin-4(5H)-yl)-2,2-dimethylpropan-1-one] | 394
CCC(C)(C)C(=O)N1C[C@@H]2C[C@H]1c1cncc(Cl)c1O2 [Compound 2-9, 1-((2S,5S)-9-chloro-2,3-dihydro-2,5-methanopyrido[3,4-f][1,4]oxazepin-4(5H)-yl)-2,2-dimethylbutan-1-one] | 41
CC1(C(=O)N2C[C@@H]3C[C@H]2c2cncc(Cl)c2O3)CCC1 [Compound 2-10, ((2S,5S)-9-chloro-2,3-dihydro-2,5-methanopyrido[3,4-f][1,4]oxazepin-4(5H)-yl)(1-methylcyclobutyl)methanone] | 227
